Article PMC8619046, “ABCB1 and ABCG2 Control Brain Accumulation and Intestinal Disposition of the Novel ROS1/TRK/ALK Inhibitor Repotrectinib, While OATP1A/1B, ABCG2, and CYP3A Limit Its Oral Availability” (Pharmaceutics, 2021)
Where two headings read alike, the source gives them in different places.

Experiments:
[1] = tested on: ROS1-positive advanced NSCLC; conditions: cited from earlier work; for confirmed objective response rate (ORR): preliminary TRIDENT-1 data
[2] = Oral plasma pharmacokinetics compared across experiments and mouse strains; type: in vivo, mice
Source text: Mice with similar average ages (and body weights) were randomly allocated in experimental groups as far as possible. Mice were maintained in a temperature-controlled and specific pathogen-free environment with a 12-h light and 12-h dark cycle and they received a standard diet (Transbreed, SDS Diets, Technilab-BMI, Someren, The Netherlands) and acidified water ad libitum. […] Given the objective main readout (repotrectinib plasma and tissue concentrations as measured by LC-MS/MS), no blinding method was applied.
Repotrectinib was dissolved in dimethyl sulfoxide (DMSO) at a concentration of 50 mg/mL. […]
A sensitive and specific liquid chromatography-tandem mass spectrometry method using protein precipitation pre-treatment was adopted to quantify the concentration of repotrectinib in DMEM medium, plasma samples and tissue homogenates.
A non-compartmental model using the PKSolver add-in program for Microsoft Excel was adopted to calculate the pharmacokinetic parameters of repotrectinib. Oral availability was assessed by the plasma area under the curve (AUC), calculated using repotrectinib plasma concentration-time curves with the linear trapezoidal rule without extrapolating the infinity. […]

human ABCG2 = tested on: T1, human ABCG2; experiment: Transepithelial transport, MDCK-II cells transduced with hABCG2; type: in vitro ADME; conditions: MDCK-II hABCG2, 5 µM, read-out: efflux transport ratio r
T1 construct: expressed in transfected cells; host or cells: MDCK-II cells stably transduced with hABCG2 cDNA (made in the authors' institute)
Source text: Polarized Madin-Darby Canine Kidney (MDCK-II) cells (ECACC 00062107) stably transduced with either human (h) ABCB1, hABCG2 or mouse (m) Abcg2 cDNA were generated in our institute between 1995–2005. The proper identity and functionality, such as highly characteristic growth and drug transporter properties, including inhibitor sensitivity, were regularly checked in these epithelial cells. Mycoplasma routinely tested negative in these cells. The passage number was 10–15 when used in the transport experiments.
Transepithelial transport experiments were performed as previously described with 12-well plates (Transwell 3414, Corning Inc., Kennebunk, ME, USA) containing microporous polycarbonate membrane filters (3.0 µm pore size, 12 mm diameter). […]
After pre-incubation with 5 µM zosuquidar (ABCB1 inhibitor) and/or 5 µM Ko143 (ABCG2/Abcg2 inhibitor) in both compartments (when appropriate) for 1 h, the transport phase was initiated (t = 0) by replacing the medium in apical and basolateral compartments with fresh DMEM with 10% FBS and the appropriate inhibitor(s), and repotrectinib at 5 µM in the donor compartment. […] The active transport ratio r, calculated by dividing the amount of apically directed drug transport by basolaterally directed drug translocation after 8 h, was used to assess active transport of repotrectinib.

For `C[C@H]1CNC(=O)c2cnn3ccc(nc23)N[C@H](C)c2cc(F)ccc2O1` [repotrectinib], the “confirmed objective response rate (ORR)” value ([1]; TKI-naïve ROS1 + NSCLC patients) is given as 86%, the “confirmed objective response rate (ORR)” value ([1]; TKI-pretreated patients) is given as 50% and the “treatment-related adverse events, severity” value ([1]; majority of events, manageable) is given as “grade 1 or grade 2”. The “most common adverse effect” value ([1]; on-going phase I clinical trial (NCT03063116)) was “dizziness”, the “patients with prominent clinical activity” value ([1]; patients who had disease progression on prior TRK inhibitors) was 50% and the Tmax ([2]; plasma, 10 mg/kg, all tested mouse strains, oral administration) was about 30 min. The “plasma levels, female relative to male mice” value ([2]; same oral dose 10 mg/kg, Figure 3 vs Figure S1) was “about 1.6 fold”, the efflux ratio at 8 h, 5 µM (human ABCG2; pH 7.4, with zosuquidar 5 µM + Ko143 5 µM, + zosuquidar 5 µM + Ko143 5 µM) was 0.95 and the efflux ratio at 8 h, 5 µM (human ABCG2; pH 7.4, with zosuquidar 5 µM, + zosuquidar 5 µM) was 5.6.
